Results published in US12674795B2, “Method for peritoneal metastatic cell detection and isolation thereof” (THE UNIVERSITY OF HONG KONG, priority 2019, dated 2026).

How the values were obtained:
[1] = molecular target: T1, P-selectin (Mus musculus, UniProt Q01102); assay: Adhesion of tumor cells to the mouse peritoneum; type: in vivo; conditions: 1 mg kg^-1 i.p. 1 h prior to injection of M-CSCs from SKOV-3 and ovarian cancer patients; NOD/SCID mice
T1 construct: from tissue; host or cells: peritoneum, mesentery and omentum of living NOD/SCID mice
T1 sequence (Q01102 42-768): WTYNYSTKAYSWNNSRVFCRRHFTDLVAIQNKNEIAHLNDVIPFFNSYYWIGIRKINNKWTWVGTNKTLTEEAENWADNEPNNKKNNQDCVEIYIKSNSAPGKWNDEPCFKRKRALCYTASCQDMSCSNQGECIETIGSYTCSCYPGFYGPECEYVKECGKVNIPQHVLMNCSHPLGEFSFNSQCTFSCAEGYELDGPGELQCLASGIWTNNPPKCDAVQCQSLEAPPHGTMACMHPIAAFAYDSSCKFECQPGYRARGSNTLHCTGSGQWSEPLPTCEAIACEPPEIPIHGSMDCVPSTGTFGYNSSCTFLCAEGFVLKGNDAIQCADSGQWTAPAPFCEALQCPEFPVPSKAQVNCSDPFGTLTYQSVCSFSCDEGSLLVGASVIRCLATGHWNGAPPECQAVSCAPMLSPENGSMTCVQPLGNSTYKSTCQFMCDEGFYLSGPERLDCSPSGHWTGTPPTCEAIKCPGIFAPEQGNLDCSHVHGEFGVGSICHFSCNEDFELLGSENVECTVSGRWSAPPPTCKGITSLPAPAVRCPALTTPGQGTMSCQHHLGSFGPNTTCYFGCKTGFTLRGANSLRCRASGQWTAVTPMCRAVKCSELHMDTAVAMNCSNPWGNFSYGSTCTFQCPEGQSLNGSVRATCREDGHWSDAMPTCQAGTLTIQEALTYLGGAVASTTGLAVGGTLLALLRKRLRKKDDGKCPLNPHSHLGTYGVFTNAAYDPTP
Method: M-CSCs (1×10^7) derived from SKOV-3 and ovarian cancer patients were fluorescently labeled with CMFDA and i.p. injected into NOD/SCID mice. To inhibit P-selectin, KF38789 (1 mg kg^−1, 2748, Tocris) or vehicle control were injected into the peritoneal cavity of mice 1 h prior to cell injection. Mice were sacrificed after 16 h and the peritoneal cavity was washed with PBS to remove non-adherent cells. Fluorescent signal from adherent tumor cells was acquired in the IVIS Spectrum and peritoneum, mesentery, and omentum were lysed with 1% NP-40 and fluorescence was measured with VICTOR (PerkinElmer).

[2] = test system: M-CSC-HPMC interaction; assay: Microfluidic perfusion assay of M-CSCs on HPMC-coated channels under shear stress; type: cell-based, human; conditions: for effect on M-CSCs binding/adhesion to HPMCs: M-CSCs treated before perfusion, result in words
Method: (§1) Microfluidic chips were fabricated as described^13. To coat microfluidic channels with selectin recombinant proteins, channels were incubated with 1 μg mL^−1 selectin-Fc recombinant proteins in PBS at 4° C. overnight. To coat microfluidic channels with HPMCs, channels were incubated with 10 μg mL^−1 human fibronectin in serum free medium overnight at 4° C. After wash, the channels were introduced with HPMCs suspension (3.5×10^6 mL^−1) and cultured overnight under C02 incubator at 37° C. To functionally block selectins, HPMCs were incubated with 20 μg mL^−1 anti-E-selectin, anti-P-selectin, anti-L-selectin or isotype antibody at room temperature for 1 h before the assays.
(§2) CSCs of 70-100 μm diameter were collected with cell strainer, fluorescently labeled with CMFDA Celltracker (2.5 μg mL^−1, C7025, Life Technologies) as per manufacturer's instructions for assays. Fluorescently labeled CSCs resuspended in binding buffer (1500 spheroids mL^−1) were perfused into the microfluidic channel through a syringe pump (LongerPump) under desired shear stresses. The viscosity of the binding buffer (0.9 cp) is within the range of viscosity (0.95±0.15 cp) of ascitic fluid in patients with various ascitic etiologies^48. The motion of cancer spheroids was observed under fluorescent microscope (Nikon ECLIPSE Ti) and serial time lapse images (1 image sec^−1) were captured for 30 sec. More than three randomly chosen areas (4× objective) were captured for each treatment.
(§3) The motion of cancer spheroids under flow was analyzed offline using Image J (National Institutes of Health) and used for the classification of interactions as described^49. Briefly, cancer spheroids that tethered to the surface, then detached in the flow were defined as tethering. Cancer spheroids that moved at a velocity below the hydrodynamic velocity for more than one spheroid diameter were defined as rolling. Cancer spheroids that remained stationary for more than one frame during recording were determined as adhesion. Percentage of tethering or adhesion was calculated by dividing the number of tethering or adherent spheroids by the total number of spheroids flew through the field of observation in the 30 sec duration.
(§4) In some experiments, M-CSCs were incubated with or without neuramidase (100 mU, N2876, Sigma-Aldrich), α1-3,4 fucosidase (150 mU, P0769S, New England BioLabs), OSGE (100 μg mL^−1, CLE100, Cedarlane) or PNGase (10 U mL^−1, P0704S, New England BioLabs) according to the manufacturer's instructions for 1 h at 37° C. prior staining. To inhibit sulfation, M-CSCs were incubated with sodium chlorate (25 mM, 403016, Sigma-Aldrich) in serum-free medium for 48 h. To functionally block sLe^x, sLe^a or IGF-1R on M-CSCs, M-CSCs were incubated with CSLEX-1 (10 μg mL^−1, 551344, BD Biosciences), anti-CA19-9 (10 μg mL^−1, ab15146, Abcam), anti-IGF-1R (2 μg mL^−1, 24-60, Invitrogen) or isotype antibodies for 1 h at 37° C., respectively. To remove cell surface glycoprotein, M-CSCs were incubated with Trypsin/EDTA solution (0.05%, 25300054, Gibco) for 5 min and neutralized with the complete medium. To inhibit glycolipid synthesis, M-CSCs were cultured with or without DL-PPMP (2.5 μM, sc-205655, Santa Cruz) in serum-free medium for 5 days. To test the involvement of RTKs in mediating CSCs adhesion, M-CSCs were treated with or without small molecule inhibitors as indicated in the FIG. 13 before perfusion. All CSC perfusion experiments were repeated with HPMCs isolated from at least 3 different patients.

[3] = test system: P-selectin-Fc; assay: Microfluidic perfusion assay of M-CSCs on P-selectin-Fc recombinant protein-coated channels; type: cell-based; conditions: for effect on M-CSCs binding/adhesion to P-selectin-Fc: M-CSCs treated before perfusion, result in words
Method: as §1, §2, §3, §4

[4] = molecular target: P-selectin recombinant protein (Homo sapiens, UniProt P16109); assay: Flow adhesion assay of HM and NM cells on P-selectin recombinant protein; type: cell-based; conditions: 5 mM EDTA solution, shear stress 1 dynes/cm^2 for 1 min
Chain of P-selectin recombinant protein (P16109 with tags, fused parts or gaps limits assumed, species assumed): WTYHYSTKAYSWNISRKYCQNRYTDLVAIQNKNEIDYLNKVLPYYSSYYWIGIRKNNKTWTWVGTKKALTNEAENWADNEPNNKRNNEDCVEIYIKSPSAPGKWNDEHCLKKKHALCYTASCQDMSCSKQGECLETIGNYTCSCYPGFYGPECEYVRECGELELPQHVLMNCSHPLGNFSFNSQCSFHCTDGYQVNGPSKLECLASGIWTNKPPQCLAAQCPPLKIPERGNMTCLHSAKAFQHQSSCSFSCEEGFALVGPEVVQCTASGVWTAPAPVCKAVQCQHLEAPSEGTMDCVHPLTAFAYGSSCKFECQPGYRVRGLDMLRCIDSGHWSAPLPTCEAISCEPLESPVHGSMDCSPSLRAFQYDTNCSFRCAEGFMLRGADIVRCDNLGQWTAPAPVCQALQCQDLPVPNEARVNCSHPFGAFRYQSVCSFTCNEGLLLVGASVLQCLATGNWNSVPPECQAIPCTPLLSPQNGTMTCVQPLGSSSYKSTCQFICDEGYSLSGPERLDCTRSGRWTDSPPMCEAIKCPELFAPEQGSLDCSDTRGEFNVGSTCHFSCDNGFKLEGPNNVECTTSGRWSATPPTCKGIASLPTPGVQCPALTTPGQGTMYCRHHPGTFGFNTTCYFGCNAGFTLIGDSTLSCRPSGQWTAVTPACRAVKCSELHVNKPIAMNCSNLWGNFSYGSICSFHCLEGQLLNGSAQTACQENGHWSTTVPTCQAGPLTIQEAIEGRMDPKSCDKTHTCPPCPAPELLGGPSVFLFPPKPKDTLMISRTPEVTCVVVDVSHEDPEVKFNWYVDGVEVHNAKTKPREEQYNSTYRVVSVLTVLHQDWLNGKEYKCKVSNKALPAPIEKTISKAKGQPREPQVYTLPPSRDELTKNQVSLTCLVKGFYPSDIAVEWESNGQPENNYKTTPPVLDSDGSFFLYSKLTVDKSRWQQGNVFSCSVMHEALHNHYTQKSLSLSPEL
Source text: FIG. 9A-9E show results of flow adhesion assay. (A) Transient velocities of representative cells on P-selectin recombinant protein. Triangles represent a rolling adhesion highly metastatic (HM) cells; Circles represent a non-interaction non-metastatic (NM) cells quickly passed through the channel. […] (B) Rolling percentage of NM and HM cells on P-selectin recombinant protein. (C) Cumulative frequency rolling velocity histograms. (D) Adhesion percentage of NM and HM cells on P-selectin recombinant protein. HM or NM cells were introduced into flow chambers pre-coated with […] P-selectin-Fc chimera or Fc control at shear stress of 0.1 dyne/cm2. Cell movement was observed under microscope and captured with high speed camera. Cancer cells rolling velocity was calculated by dividing moving distance with duration. […] Adhesion was defined as cancer cells stop moving for more than one second during recording. The rolling or adhesion fraction was quantified through dividing the number of rolling or adhesive cells by the total number of cells traveled into the field of observation area for 30 seconds. (E) Adhesion percentage of NM and HM cells on P-selectin-Fc chimera at shear stress of 0.05-0.15 dyne/cm2. Data are presented as mean±S.E.; *P<0.05, **P<0.01.
FIG. 10A-10B show EDTA detachment assay. […] (A) A brightfield microscope image of captured HM cells. […]

[5] = shear stress around 1 dynes cm^-2

Molecule	extent of tumor metastases on the omentum, mesenteries and peritoneal wall [1]	effect on M-CSCs binding/adhesion to HPMCs [2]	effect on M-CSCs binding/adhesion to P-selectin-Fc [3]	detachment of adherent M-CSCs from HPMCs [2, 5]	detachment of adherent M-CSCs from P-selectin chimera [3, 5]	detachment of captured HM cells from P-selectin-coated channel bottom [4]
COc1ccc(C2CC(c3c(O)cc(C)oc3=O)=NCCS2)c(OC)c1 (stereo not drawn) [KF38789]	significantly inhibited	–	–	–	–	–
CCCCCCCCCCCCCCCC(=O)N[C@H](CN1CCOCC1)[C@H](O)c1ccccc1 [PPMP]	–	had no effect	had no effect	–	–	–
O=c1c(-c2ccc(O)cc2)coc2cc(O)cc(O)c12 [genistein]	–	marked decrease	marked decrease	–	–	–
trypsin	–	almost completely abolished the adhesion	almost completely abolished the adhesion	–	–	–
[Na+].[O-][Cl+2]([O-])[O-] [sodium chlorate]	–	did not alter the binding activity	did not alter the binding activity	–	–	–
O=C(O)CN(CCN(CC(=O)O)CC(=O)O)CC(=O)O [EDTA]	–	inhibited the adhesion	–	easily detach	easily detach	easily detached
CC(C)(C)c1cc(C=C(C#N)C#N)cc(Br)c1O [AG1024]	–	marked decrease	marked decrease	–	–	–
